α2δ binding affinity, binding affinities and melting point data for five compounds are collected here from patent US6596900B2, “Fused bicyclic or tricyclic amino acids” (Pfizer Inc, priority 2001, dated 2003).

The target of data set [1] is T1, α2δ subunit derived from porcine brain tissue (Sus scrofa, UniProt A0A287BIN3).
T1 construct: the α2δ subunit derived from porcine brain tissue; from tissue; host or cells: porcine brain tissue
The settings on record: [3H]gabapentin radioligand; compounds of WO0128978 (prior application); cited from earlier work.

For data set [2], the target named is T1, α2δ subunit derived from porcine brain tissue. Briefly: radioligand binding assay using [3H]gabapentin and the α2δ subunit. The settings on record: [3H]gabapentin radioligand binding assay described herein. The source says: wherein n is an integer of from 1 to 4, where there are stereocentres, each center may be independently R or S, preferred compounds being those of Formulae I-IV above in which n is an integer of from 2 to 4. The compounds are disclosed as being useful in treating a variety of disorders including epilepsy, faintness attacks, hypokinesia, cranial disorders, neurodegenerative disorders, depression, anxiety, panic, pain, neuropathological disorders, and sleep disorders. Certain of the compounds disclosed in that patent have high activity as measured in a radioligand binding assay using [^3H]gabapentin and the α2δ subunit derived from porcine brain tissue (Gee N. S., Brown J. P., Dissanayake V. U. K., Offord J., Thurlow R., Woodruff G. N., J. Biol. Chem., 1996;271:[…]). Results for some of the compounds are set out in the following table:
The biological activity of the compounds of the invention may be measured in a radioligand binding assay using [^3H]gabapentin and the α2δ subunit derived from porcine brain tissue (Gee N. S., Brown J. P., Dissanayake V. U. K., Offord J., Thurlow R., Woodruff G. N., ADVANCEADVANCE J. Biol. Chem., 1996;271:5879-[…]). Results may be expressed in terms of μM or nM α2δ binding affinity.

Broadly, the melting point is the temperature of the solid-liquid transition.

T1 sequence (A0A287BIN3 entry or part of it): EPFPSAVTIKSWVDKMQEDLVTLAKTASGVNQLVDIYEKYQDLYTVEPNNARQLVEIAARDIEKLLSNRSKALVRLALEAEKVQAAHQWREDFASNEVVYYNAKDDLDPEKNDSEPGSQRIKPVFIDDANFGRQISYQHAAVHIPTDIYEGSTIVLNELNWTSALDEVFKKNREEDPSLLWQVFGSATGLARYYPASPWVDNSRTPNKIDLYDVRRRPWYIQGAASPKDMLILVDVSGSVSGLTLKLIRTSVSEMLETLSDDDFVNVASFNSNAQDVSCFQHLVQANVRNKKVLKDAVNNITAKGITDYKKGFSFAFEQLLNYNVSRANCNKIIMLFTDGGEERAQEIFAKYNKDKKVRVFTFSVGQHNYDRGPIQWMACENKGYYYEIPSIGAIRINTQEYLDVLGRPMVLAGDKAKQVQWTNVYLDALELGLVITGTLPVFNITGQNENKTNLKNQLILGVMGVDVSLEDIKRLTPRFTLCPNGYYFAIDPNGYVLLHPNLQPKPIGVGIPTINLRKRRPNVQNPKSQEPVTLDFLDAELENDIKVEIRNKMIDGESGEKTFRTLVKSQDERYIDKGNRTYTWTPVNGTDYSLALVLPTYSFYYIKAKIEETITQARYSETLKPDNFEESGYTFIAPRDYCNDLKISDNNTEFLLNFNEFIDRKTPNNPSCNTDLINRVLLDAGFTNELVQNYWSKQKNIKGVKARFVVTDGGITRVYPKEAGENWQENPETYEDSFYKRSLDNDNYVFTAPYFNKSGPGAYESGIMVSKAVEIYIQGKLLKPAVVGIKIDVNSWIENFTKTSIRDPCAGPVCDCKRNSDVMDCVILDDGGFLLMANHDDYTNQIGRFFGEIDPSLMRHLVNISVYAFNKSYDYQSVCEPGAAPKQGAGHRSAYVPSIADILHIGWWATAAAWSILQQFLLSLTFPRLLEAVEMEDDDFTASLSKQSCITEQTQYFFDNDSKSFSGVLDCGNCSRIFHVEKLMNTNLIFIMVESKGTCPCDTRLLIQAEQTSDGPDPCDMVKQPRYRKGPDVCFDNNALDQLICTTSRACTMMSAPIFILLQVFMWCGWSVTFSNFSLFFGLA

Regarding `NCC1(CC(=O)O)C[C@H]2CC[C@@H]2C1` (racemic) [(+/−)-(1α, 5β)(3-Aminomethyl-bicyclo[3.2.0]hept-3-yl)-acetic acid], the α2δ binding affinity in data set [1] was 2.86 µM. Take `NC[C@]1(CC(=O)O)C[C@H]2CC[C@H]2C1` [(1α, 3α, 5α)(3-Aminomethyl-bicyclo[3.2.0]hept-3-yl)-acetic acid]: in data set [1], the α2δ binding affinity was 0.038 µM. Turning to `NC[C@@]1(CC(=O)O)C[C@H]2CC[C@H]2C1` [((1α, 3β, 5α)(3-Aminomethyl-bicyclo[3.2.0]hept-3-yl)-acetic acid], the α2δ binding affinity in data set [1] was 0.332 µM. As for `Cl.NC[C@]1(CC(=O)O)C[C@H]2CCC[C@H]21` [Example 1, [(1R,5R,6S)-6-(Aminomethyl)bicyclo[3.2.0]hept-6-yl]acetic acid hydrochloride], the melting point turned out to be 198 °C. The compound further had a binding affinities in data set [2] of 46.8 nM. Consider `Cl.NC[C@]1(CC(=O)O)C[C@H]2CCCC[C@H]21` [Example 4, [(1R,6R,7S)-7-(Aminomethyl)bicyclo[4.2.0]oct-7-yl]acetic acid hydrochloride], for which the binding affinities in data set [2] is recorded as 600 nM.
